Active and inactive are the calls of the source. No cut-off for these calls is given here.

The source of these data is ChEMBL document CHEMBL5518165, “M335, a novel small-molecule STING agonist activates the immune response and exerts antitumor effects” (Eur J Med Chem, 2024).

Data set [1] can be described thus: Toxicity in […] mouse allografted with mouse CT26 cells assessed as change in body weight at 5 to 20 mg/kg, ip administered every 2 days. Format: organism-based. The conditions noted are these: in vivo, 48 h, dose 5-20 mg/kg.
A further data set relates to THP1-Dual KO-STING. Nature of the data set: Upregulation of interferon production in human THP1-Dual KO-STING cells by dual-luciferase reporter assay. The data set is classed as functional, cell-based. (Reporter assays use an easily measured gene product as a stand-in for the process of interest.)
Data set [2] deals with Human alphaherpesvirus 1. The data set can be described thus: Antiviral activity against HSV-1-GFP infected in human HeLa cells assessed as reduction in viral infection by fluorescent microscopy analysis. Format: functional, organism-based.
The test system of data set [3] is MC-38. Nature of the data set: Antitumor activity against mouse MC38 cells allografted in C57/BL6 mouse assessed as increase in CD8+ T cell numbers in spleen at 300 ug, IT administered every 2 days by immunohistochemical staining based analysis. The data set is classed as functional. The conditions noted are these: dose 300.0 µg.
For data set [4], the target named is Stimulator of interferon genes protein (Homo sapiens) (UniProt Q86WV6). The data set can be described thus: Agonist activity at STING in human THP-1 cells assessed as IRF3 phosphorylation at 20 uM measured for 4 hrs in presence of H-151 by Western blotting analysis. The data set is classed as cell-based. Background: Immunoblotting shows a protein as a band on a membrane.

Data set [5] concerns Human alphaherpesvirus 1. The data set can be described thus: Antiviral activity against HSV-1-GFP infected in human THP-1 cells assessed as reduction in viral infection at 10 to 30 uM pre-infected with virus for 48 hrs followed by compound addition and measured after 6 hrs by flow cytometry analysis. The data set is classed as functional, organism-based. The conditions noted are these: dose 10-30 µM.

The target in data set [6] is Stimulator of interferon genes protein (Homo sapiens) (UniProt Q86WV6). The data set can be described thus: Agonist activity at STING in human THP-1 cells assessed as increase in ISG15 mRNA level at 20 uM measured for 4 hrs by qPCR analysis. The data set is classed as cell-based. The conditions noted are these: filed as agonist. (In general: Real-time PCR tracks product formation cycle by cycle.)

The next data set concerns THP-1. Nature of the data set: Upregulation of TBK1 phosphorylation in STING-knockout human THP-1 cells at 20 uM measured for 4 hrs by Western blotting analysis. Format: functional, cell-based.
The test system of data set [7] is MC-38. Nature of the data set: Antitumor activity against mouse MC38 cells allografted in C57/BL6 mouse assessed as increase in CD8+ T cells in spleen at 300 ug, IT administered every 2 days by flow cytometry analysis (reference value: 8.80%). The data set is classed as functional. The note with it: dose 300 µg.

Stimulator of interferon genes protein (Homo sapiens), sequence (Q86WV6 whole entry): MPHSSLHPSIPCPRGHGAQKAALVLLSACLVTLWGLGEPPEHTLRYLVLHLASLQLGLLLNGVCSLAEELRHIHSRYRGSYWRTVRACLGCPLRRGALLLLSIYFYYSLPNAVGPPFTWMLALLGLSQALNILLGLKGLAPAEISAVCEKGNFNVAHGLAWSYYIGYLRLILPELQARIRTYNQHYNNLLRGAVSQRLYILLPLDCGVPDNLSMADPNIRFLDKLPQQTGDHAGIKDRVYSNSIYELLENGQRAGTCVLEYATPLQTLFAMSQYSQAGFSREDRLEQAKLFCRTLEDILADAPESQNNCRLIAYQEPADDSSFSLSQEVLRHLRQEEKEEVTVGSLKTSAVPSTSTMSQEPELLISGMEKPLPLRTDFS

For the compound `CC(NCCC(c1ccccc1)c1ccccc1)c1ccccc1` (centres undefined) [FENDILINE], the Activity result in data set [1] is given as “Non-Toxic”; with MC-38 [7], 14.3%. The result (in the data set with THP1-Dual KO-STING; in data set [4]; in the data set with THP-1) was inactive. Also, the result (with Human alphaherpesvirus 1 [2]; in the data set with MC-38 [3]; in the data set with Human alphaherpesvirus 1 [5]; in [6]) was Active.
